Reference: PubChem BioAssay (NCI)
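Protocol summary: plate cells (96-well), add compound at 5 concentrations, incubate 48 h, interpolate endpoints linearly. TGI marks complete inhibition of growth.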

Tests used:
Experiment in all cases: inhibition of tumour cell growth, NCI panel, 48 h
SNB-78 CNS = tested on: SNB-78 CNS
DMS 273 small cell lung = tested on: DMS 273 small cell lung
SNB-19 CNS = tested on: SNB-19 CNS
NCI-H460 lung = tested on: NCI-H460 lung
SN12C renal = tested on: SN12C renal
SK-MEL-2 melanoma = tested on: SK-MEL-2 melanoma
TK-10 renal = tested on: TK-10 renal
A549 NSCLC = tested on: A549 NSCLC
KM20L2 colon = tested on: KM20L2 colon
SF-268 CNS = tested on: SF-268 CNS
OVCAR-8 ovarian = tested on: OVCAR-8 ovarian
HOP-18 NSCLC = tested on: HOP-18 NSCLC
LOX IMVI melanoma = tested on: LOX IMVI melanoma
KM12 colon = tested on: KM12 colon
SF-539 CNS = tested on: SF-539 CNS
IGROV1 ovarian = tested on: IGROV1 ovarian
HCT-116 colon = tested on: HCT-116 colon
HL-60(TB) leukemia = tested on: HL-60(TB) leukemia
M19-MEL melanoma = tested on: M19-MEL melanoma
ACHN renal = tested on: ACHN renal
SK-OV-3 ovarian = tested on: SK-OV-3 ovarian
HOP-92 NSCLC = tested on: HOP-92 NSCLC
DMS 114 small cell lung = tested on: DMS 114 small cell lung
OVCAR-3 ovarian = tested on: OVCAR-3 ovarian
SW-620 colon = tested on: SW-620 colon
HOP-62 NSCLC = tested on: HOP-62 NSCLC
OVCAR-5 ovarian = tested on: OVCAR-5 ovarian
NCI-H23 lung = tested on: NCI-H23 lung
RXF 393 renal = tested on: RXF 393 renal
U251 CNS = tested on: U251 CNS
RPMI-8226 leukemia = tested on: RPMI-8226 leukemia
SNB-75 CNS = tested on: SNB-75 CNS
HT29 colon = tested on: HT29 colon
MALME-3M melanoma = tested on: MALME-3M melanoma
NCI-H226 lung = tested on: NCI-H226 lung
M14 melanoma = tested on: M14 melanoma
K-562 leukemia = tested on: K-562 leukemia
786-0 renal = tested on: 786-0 renal
SR leukemia = tested on: SR leukemia
MOLT-4 leukemia = tested on: MOLT-4 leukemia
UO-31 renal = tested on: UO-31 renal
SF-295 CNS = tested on: SF-295 CNS
SK-MEL-5 melanoma = tested on: SK-MEL-5 melanoma
HCT-15 colon = tested on: HCT-15 colon
UACC-257 melanoma = tested on: UACC-257 melanoma
UACC-62 melanoma = tested on: UACC-62 melanoma
DLD-1 colon = tested on: DLD-1 colon
COLO 205 colon = tested on: COLO 205 colon
LXFL 529 NSCLC = tested on: LXFL 529 NSCLC
NCI-H522 lung = tested on: NCI-H522 lung
SK-MEL-28 melanoma = tested on: SK-MEL-28 melanoma
CCRF-CEM leukemia = tested on: CCRF-CEM leukemia
HCC-2998 colon = tested on: HCC-2998 colon
EKVX NSCLC = tested on: EKVX NSCLC
CAKI-1 renal = tested on: CAKI-1 renal
OVCAR-4 ovarian = tested on: OVCAR-4 ovarian
A498 renal = tested on: A498 renal

**Q.** With `N#CC(C#N)=c1ccc(=C2N3CCCC3CN2C23CC4CC(CC(C4)C2)C3)cc1` (stereo not drawn) as the compound, how does the TGI (SNB-78 CNS) read?
**A.** > 100 µM

**Q.** And the TGI (DMS 273 small cell lung)?
**A.** > 100 µM

**Q.** What about the TGI (SNB-19 CNS) of the same compound?
**A.** > 100 µM

**Q.** What about the TGI (NCI-H460 lung) of the same compound?
**A.** > 100 µM

**Q.** What about the TGI (SN12C renal) of the same compound?
**A.** > 100 µM

**Q.** And the TGI (SK-MEL-2 melanoma)?
**A.** > 100 µM

**Q.** What about the TGI (TK-10 renal) of the same compound?
**A.** > 100 µM

**Q.** What about the TGI (A549 NSCLC) of the same compound?
**A.** > 100 µM

**Q.** What about the TGI (KM20L2 colon) of the same compound?
**A.** > 100 µM

**Q.** What about the TGI (SF-268 CNS) of the same compound?
**A.** > 100 µM

**Q.** What about the TGI (OVCAR-8 ovarian) of the same compound?
**A.** > 100 µM

**Q.** What about the TGI (HOP-18 NSCLC) of the same compound?
**A.** > 100 µM

**Q.** And the TGI (LOX IMVI melanoma)?
**A.** > 100 µM

**Q.** And the TGI (KM12 colon)?
**A.** > 100 µM

**Q.** What about the TGI (SF-539 CNS) of the same compound?
**A.** > 100 µM

**Q.** And the TGI (IGROV1 ovarian)?
**A.** > 100 µM

**Q.** And the TGI (HCT-116 colon)?
**A.** > 100 µM

**Q.** And the TGI (HL-60(TB) leukemia)?
**A.** > 100 µM

**Q.** And the TGI (M19-MEL melanoma)?
**A.** > 100 µM

**Q.** And the TGI (ACHN renal)?
**A.** > 100 µM

**Q.** What about the TGI (SK-OV-3 ovarian) of the same compound?
**A.** > 100 µM

**Q.** What about the TGI (HOP-92 NSCLC) of the same compound?
**A.** > 100 µM

**Q.** And the TGI (DMS 114 small cell lung)?
**A.** > 100 µM

**Q.** What about the TGI (OVCAR-3 ovarian) of the same compound?
**A.** > 100 µM

**Q.** What about the TGI (SW-620 colon) of the same compound?
**A.** > 100 µM

**Q.** And the TGI (HOP-62 NSCLC)?
**A.** > 100 µM

**Q.** What about the TGI (OVCAR-5 ovarian) of the same compound?
**A.** > 100 µM

**Q.** What about the TGI (NCI-H23 lung) of the same compound?
**A.** > 100 µM

**Q.** And the TGI (RXF 393 renal)?
**A.** > 100 µM

**Q.** What about the TGI (U251 CNS) of the same compound?
**A.** > 100 µM

**Q.** What about the TGI (RPMI-8226 leukemia) of the same compound?
**A.** > 100 µM

**Q.** And the TGI (SNB-75 CNS)?
**A.** 78.8 µM

**Q.** What about the TGI (HT29 colon) of the same compound?
**A.** > 100 µM

**Q.** What about the TGI (MALME-3M melanoma) of the same compound?
**A.** > 100 µM

**Q.** What about the TGI (NCI-H226 lung) of the same compound?
**A.** > 100 µM

**Q.** What about the TGI (M14 melanoma) of the same compound?
**A.** > 100 µM

**Q.** And the TGI (K-562 leukemia)?
**A.** > 100 µM

**Q.** What about the TGI (786-0 renal) of the same compound?
**A.** > 100 µM

**Q.** What about the TGI (SR leukemia) of the same compound?
**A.** > 100 µM

**Q.** What about the TGI (MOLT-4 leukemia) of the same compound?
**A.** > 100 µM

**Q.** And the TGI (UO-31 renal)?
**A.** > 100 µM

**Q.** What about the TGI (SF-295 CNS) of the same compound?
**A.** > 100 µM

**Q.** What about the TGI (SK-MEL-5 melanoma) of the same compound?
**A.** > 100 µM

**Q.** What about the TGI (HCT-15 colon) of the same compound?
**A.** > 100 µM

**Q.** What about the TGI (UACC-257 melanoma) of the same compound?
**A.** > 100 µM

**Q.** And the TGI (UACC-62 melanoma)?
**A.** > 100 µM

**Q.** And the TGI (DLD-1 colon)?
**A.** > 100 µM

**Q.** And the TGI (COLO 205 colon)?
**A.** > 100 µM

**Q.** And the TGI (LXFL 529 NSCLC)?
**A.** > 100 µM

**Q.** What about the TGI (NCI-H522 lung) of the same compound?
**A.** > 100 µM

**Q.** What about the TGI (SK-MEL-28 melanoma) of the same compound?
**A.** > 100 µM

**Q.** What about the TGI (CCRF-CEM leukemia) of the same compound?
**A.** > 100 µM

**Q.** What about the TGI (HCC-2998 colon) of the same compound?
**A.** > 100 µM

**Q.** What about the TGI (EKVX NSCLC) of the same compound?
**A.** > 100 µM

**Q.** How did the TGI (SNB-78 CNS) turn out when `COc1cccc2c1C(=O)C1(O)CCCCC21` (stereo not drawn) was run?
**A.** > 100 µM

**Q.** What about the TGI (DMS 273 small cell lung) of the same compound?
**A.** > 100 µM

**Q.** What about the TGI (SNB-19 CNS) of the same compound?
**A.** > 100 µM

**Q.** What about the TGI (NCI-H460 lung) of the same compound?
**A.** > 100 µM

**Q.** And the TGI (SN12C renal)?
**A.** > 100 µM

**Q.** And the TGI (SK-MEL-2 melanoma)?
**A.** > 100 µM

**Q.** And the TGI (TK-10 renal)?
**A.** > 100 µM

**Q.** And the TGI (A549 NSCLC)?
**A.** > 100 µM

**Q.** What about the TGI (KM20L2 colon) of the same compound?
**A.** > 100 µM

**Q.** And the TGI (SF-268 CNS)?
**A.** > 100 µM

**Q.** What about the TGI (CAKI-1 renal) of the same compound?
**A.** > 100 µM

**Q.** And the TGI (OVCAR-8 ovarian)?
**A.** > 100 µM

**Q.** What about the TGI (HOP-18 NSCLC) of the same compound?
**A.** > 100 µM

**Q.** And the TGI (LOX IMVI melanoma)?
**A.** > 100 µM

**Q.** What about the TGI (KM12 colon) of the same compound?
**A.** > 100 µM

**Q.** What about the TGI (SF-539 CNS) of the same compound?
**A.** > 100 µM

**Q.** And the TGI (IGROV1 ovarian)?
**A.** > 100 µM

**Q.** And the TGI (HCT-116 colon)?
**A.** > 100 µM

**Q.** What about the TGI (OVCAR-4 ovarian) of the same compound?
**A.** > 100 µM

**Q.** And the TGI (HL-60(TB) leukemia)?
**A.** > 100 µM

**Q.** And the TGI (M19-MEL melanoma)?
**A.** > 100 µM

**Q.** What about the TGI (ACHN renal) of the same compound?
**A.** > 100 µM

**Q.** And the TGI (SK-OV-3 ovarian)?
**A.** > 100 µM

**Q.** And the TGI (DMS 114 small cell lung)?
**A.** > 100 µM

**Q.** What about the TGI (OVCAR-3 ovarian) of the same compound?
**A.** > 100 µM

**Q.** What about the TGI (SW-620 colon) of the same compound?
**A.** > 100 µM

**Q.** And the TGI (HOP-62 NSCLC)?
**A.** > 100 µM

**Q.** And the TGI (OVCAR-5 ovarian)?
**A.** > 100 µM

**Q.** What about the TGI (NCI-H23 lung) of the same compound?
**A.** > 100 µM

**Q.** What about the TGI (A498 renal) of the same compound?
**A.** > 100 µM

**Q.** And the TGI (RXF 393 renal)?
**A.** > 100 µM

**Q.** What about the TGI (U251 CNS) of the same compound?
**A.** > 100 µM

**Q.** And the TGI (RPMI-8226 leukemia)?
**A.** > 100 µM

**Q.** And the TGI (SNB-75 CNS)?
**A.** > 100 µM

**Q.** And the TGI (HT29 colon)?
**A.** > 100 µM

**Q.** What about the TGI (MALME-3M melanoma) of the same compound?
**A.** > 100 µM

**Q.** What about the TGI (NCI-H226 lung) of the same compound?
**A.** > 100 µM

**Q.** And the TGI (M14 melanoma)?
**A.** > 100 µM

**Q.** What about the TGI (K-562 leukemia) of the same compound?
**A.** > 100 µM

**Q.** What about the TGI (786-0 renal) of the same compound?
**A.** > 100 µM

**Q.** What about the TGI (MOLT-4 leukemia) of the same compound?
**A.** > 100 µM

**Q.** What about the TGI (UO-31 renal) of the same compound?
**A.** > 100 µM

**Q.** What about the TGI (SF-295 CNS) of the same compound?
**A.** > 100 µM

**Q.** What about the TGI (SK-MEL-5 melanoma) of the same compound?
**A.** > 100 µM

**Q.** What about the TGI (HCT-15 colon) of the same compound?
**A.** > 100 µM

**Q.** And the TGI (UACC-257 melanoma)?
**A.** > 100 µM

**Q.** What about the TGI (UACC-62 melanoma) of the same compound?
**A.** > 100 µM

**Q.** What about the TGI (DLD-1 colon) of the same compound?
**A.** > 100 µM

**Q.** What about the TGI (COLO 205 colon) of the same compound?
**A.** > 100 µM

**Q.** What about the TGI (LXFL 529 NSCLC) of the same compound?
**A.** > 100 µM

**Q.** What about the TGI (NCI-H522 lung) of the same compound?
**A.** > 100 µM

**Q.** And the TGI (SK-MEL-28 melanoma)?
**A.** > 100 µM

**Q.** And the TGI (CCRF-CEM leukemia)?
**A.** > 100 µM

**Q.** What about the TGI (HCC-2998 colon) of the same compound?
**A.** > 100 µM
